Measured values from article PMC11258486, “Phase 1 dose escalation study of the MDM2 inhibitor milademetan as monotherapy and in combination with azacitidine in patients with myeloid malignancies” (Cancer Medicine, 2024).
Where a name gives a salt, the structure may show the parent alone. Read-outs that look alike come from different tables or passages of the source.

How the values were obtained:
[1] = Milademetan plasma pharmacokinetics; assay type: in vivo, human; set-up: AUC0‐24h versus dose, power model estimated slope: unit not given beside the values; conditions: for half-life / Tmax: human, plasma; for half-life: read-out: geometric mean t1/2
Excerpt: For PK analysis, blood samples were collected at frequent intervals during Cycle 1 Days 1 and 15 in Part 1 (monotherapy), and on Day 5 or 8 (according to dosing schedule) and Day 14 in Part 1A, with sparse sampling on other days.

[2] = system: Macrophage inhibitory cytokine‐1 (MIC‐1); test: Serum MIC‐1 pharmacodynamics; assay type: in vivo, human; conditions: monotherapy, all cohorts
Excerpt: Macrophage inhibitory cytokine‐1 (MIC‐1) is a target of p53 transcriptional activation,[25] and, therefore, change in serum MIC‐1 levels was included as a PD endpoint, measured at multiple time points.

[3] = 160 mg QD for 15 days in Cycle 1
[4] = monotherapy, all studied doses, Cycle 1 Day 1

## CC1(C)CCC2(CC1)N[C@@H](C(=O)N[C@@H]1CC[C@@H](C(N)=O)OC1)[C@H](c1ccnc(Cl)c1F)[C@]21C(=O)Nc2cc(Cl)ccc21 [Milademetan monotherapy, milademetan tosylate hydrate]
[1]; [3]
  accumulation ratio (AR) based on AUC0‐24h: 1.29
  accumulation ratio (AR) based on C max: 1.21
[1]; both monotherapy and combination arms
  Increase of C max, AUC0‐24h and AUClast with dose: dose‐proportional
[1]; monotherapy, Cycle 1 Day 15
  half-life: 7.2 to 25.2 h
[1]; Cohorts 1 through 3 (60, 90, 120 mg QD 21/28)
  Tmax: ~3 h
[1]; [4]
  Tmax: 3 to 4.6 h
  half-life: 12.9 to 24.6 h
[1]; monotherapy, Cycle 1 Day 1, 90% CI 0.44–1.08
  C max versus dose, power model estimated slope: 0.76
[1]; monotherapy, Cycle 1 Day 1, 90% CI 0.49–1.15
  AUC0‐24h versus dose, power model estimated slope: 0.82
[1]; repeated daily doses
  Time at which steady state is reached: ≤ 8 days
[2]; Cycle 1 Day 8 (N = 53)
  serum MIC‐1, mean (SD) fold change from baseline: 6.4 (5.8) fold change
[2]; Cycle 1 Day 15 (N = 49)
  serum MIC‐1, mean (SD) fold change from baseline: 5.1 (4.2) fold change
[2]; Cycle 1 Days 21 through 22
  serum MIC‐1, mean (SD) fold change from baseline: 4.1 (3.3) fold change
